Patent publication US20190352664A1, “COMPOSITIONS AND METHODS FOR CONTROLLING GENE EXPRESSION” (priority 2017, published 2019)

Tested on: Arabidopsis
Experiment: Ribo-seq and RNA-seq global translatome profiling (translational efficiency TE, mORF/uORF ribo-shift) upon elf18 treatment
Assay type: in vivo
Parameters: key to score (Ribo-shift): Up: ribo-shift up (i.e., increased mORF/uORF ratio); Down: ribo-shift down (i.e., decreased mORF/uORF ratio)
Settings: shift of mORF/uORF ratio, elf18 vs Mock; per uORF

| Substance | score (Ribo-shift) |
| --- | --- |
| AT3G03070.1_1: uORF of AT3G03070.1; peptide SEQ ID NO: 15 (DNA ATGCGTTGTTTGGTACAGCTTCACGAACAATCTCTCTCTCGATAG; listed as DNA, chemistry not fully specified) | Down |
| AT5G11790.1_1: uORF of AT5G11790.1; peptide SEQ ID NO: 33 (DNA ATGGAAAGATAA; listed as DNA, chemistry not fully specified) | Down |
| AT4G32800.1_1: uORF of AT4G32800.1; peptide SEQ ID NO: 29 (DNA ATGATAGAAACAAGAACTATCTTTTTATAA; listed as DNA, chemistry not fully specified) | Down |
| AT2G47210.1_1: uORF of AT2G47210.1; peptide SEQ ID NO: 13 (DNA ATGATAGCTACCCAGTAA; listed as DNA, chemistry not fully specified) | Up |
| AT1G30330.13: uORF of AT1G30330.1; peptide SEQ ID NO: 5 (DNA ATGAGTGGGGTGGATTAA; listed as DNA, chemistry not fully specified) | Down |
| AT4G26080.1_3: uORF of AT4G26080.1; peptide SEQ ID NO: 27 (DNA ATGTGTTTCTTCTTGTCTTCCTAG; listed as DNA, chemistry not fully specified) | Down |
| AT3G15030.1_2: uORF of AT3G15030.1; peptide SEQ ID NO: 16 (DNA ATGGGTTAG; listed as DNA, chemistry not fully specified) | Down |
| AT5G14930.1_1: uORF of AT5G14930.1; peptide SEQ ID NO: 34 (DNA ATGGACTCTCGTTCTCAGACATTTATTTCTCTCAGTCTTACAATATAA; listed as DNA, chemistry not fully specified) | Down |
| AT3G63340.1_1: uORF of AT3G63340.1; peptide SEQ ID NO: 20 (DNA ATGAAGCAATTGTTCCTTTCAAGCATGTTTACGAGCAAAAGAGTGAAAGGGTAG; listed as DNA, chemistry not fully specified) | Down |
| AT4G17840.1_4: uORF of AT4G17840.1; peptide SEQ ID NO: 22 (DNA ATGTTATAA; listed as DNA, chemistry not fully specified) | Up |
| AT1G19270.1_3: uORF of AT1G19270.1; peptide SEQ ID NO: 3 (DNA ATGAGCAGATAG; listed as DNA, chemistry not fully specified) | Down |
| AT4G23740.1_2: uORF of AT4G23740.1; peptide SEQ ID NO: 25 (DNA ATGGCGGTTCTTCACATTATCTTCACTGCGTAA; listed as DNA, chemistry not fully specified) | Down |
| AT4G23740.1_1: uORF of AT4G23740.1; peptide SEQ ID NO: 24 (DNA ATGCCAAAAAATAAGAACAAAATTATATCCGTTGCTTGA; listed as DNA, chemistry not fully specified) | Up |
| AT4G18570.1_1: uORF of AT4G18570.1; peptide SEQ ID NO: 23 (DNA ATGCTTTTAATTTCCATGCAAATCTCTCCTTTCTTCTCAAGTCATTTTTGA; listed as DNA, chemistry not fully specified) | Up |
| AT4G34460.1_1: uORF of AT4G34460.1; peptide SEQ ID NO: 30 (DNA ATGAACCTTCTTCTCTTCTAG; listed as DNA, chemistry not fully specified) | Up |
| AT4G32660.1_1: uORF of AT4G32660.1; peptide SEQ ID NO: 28 (DNA ATGTCGTCGCGGTTCGACCCCAAGGGATTTGGCCGGTAA; listed as DNA, chemistry not fully specified) | Down |
